Biological target: human CBL-B (Homo sapiens, UniProt Q13191)
Assay: TR-FRET ubiquitin ligase assay
Assay type: biochemical

Sequence of human CBL-B (Q13191 whole entry): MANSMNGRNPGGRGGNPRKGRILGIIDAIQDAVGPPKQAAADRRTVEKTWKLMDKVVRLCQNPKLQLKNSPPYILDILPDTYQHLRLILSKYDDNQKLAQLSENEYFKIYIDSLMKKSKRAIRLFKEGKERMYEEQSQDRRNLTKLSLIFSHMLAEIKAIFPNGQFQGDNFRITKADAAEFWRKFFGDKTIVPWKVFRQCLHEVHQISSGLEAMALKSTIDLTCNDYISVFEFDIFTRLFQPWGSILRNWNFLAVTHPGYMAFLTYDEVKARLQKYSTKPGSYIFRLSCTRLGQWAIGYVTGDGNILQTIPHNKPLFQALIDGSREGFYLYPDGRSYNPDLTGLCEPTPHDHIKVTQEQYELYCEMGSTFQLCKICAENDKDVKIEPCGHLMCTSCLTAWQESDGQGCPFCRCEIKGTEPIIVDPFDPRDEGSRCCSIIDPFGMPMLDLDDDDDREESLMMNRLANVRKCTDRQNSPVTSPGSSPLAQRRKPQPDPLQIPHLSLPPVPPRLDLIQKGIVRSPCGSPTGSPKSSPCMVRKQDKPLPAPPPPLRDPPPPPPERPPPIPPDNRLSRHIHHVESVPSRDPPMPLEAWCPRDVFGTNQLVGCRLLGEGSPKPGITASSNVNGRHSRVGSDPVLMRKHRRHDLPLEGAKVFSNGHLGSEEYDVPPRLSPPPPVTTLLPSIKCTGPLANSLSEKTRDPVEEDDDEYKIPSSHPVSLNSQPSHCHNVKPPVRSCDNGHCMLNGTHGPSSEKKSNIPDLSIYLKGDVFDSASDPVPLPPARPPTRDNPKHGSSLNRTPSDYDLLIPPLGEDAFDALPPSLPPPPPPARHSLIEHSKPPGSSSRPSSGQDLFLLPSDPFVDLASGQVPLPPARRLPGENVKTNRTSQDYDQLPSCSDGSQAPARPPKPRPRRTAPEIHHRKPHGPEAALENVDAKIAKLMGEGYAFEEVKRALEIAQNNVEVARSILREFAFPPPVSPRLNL

## Cn1cnnc1[C@]1(c2cccc(-c3cc4ccccc4[nH]c3=O)c2)C[C@H](C)C1 [compound 4, Cmpd. 4]
  IC50: 1190 nM

## C[C@H]1CCCN(Cc2cccc3cc(-c4cccc([C@]5(c6nncn6C)C[C@@H](C)C5)c4)c(=O)[nH]c23)C1 [compound 6, Cmpd. 6]
  IC50: 16.8 nM

## CC(NC1CCCC1)c1ccc(F)c2cc(-c3cccc([C@]4(c5nncn5C)C[C@@H](C)C4)c3)c(=O)[nH]c12 (stereo partly drawn) [compound 12, Cmpd. 12]
  IC50: 19.7 nM

From doi:10.1101/2025.11.13.688260v1 (biorxiv, 2025)
